Test results published in patent US10039724B2, “7-hydroxy cannabidiol (7-OH-CBD) for use in the treatment of non-alcoholic fatty liver disease (NAFLD)” (GW Pharma Limited, priority 2014, dated 2018).

How the values were obtained:
[1] = test system: 3T3-L1-derived mature adipocytes; assay: MTT cell viability assay in 3T3-L1-derived mature adipocytes; type: cell-based; settings: mature 3T3-L1-derived adipocytes
Description: (§1) 3T3-L1 cells were plated in 100 mm plates and differentiated as above to obtain mature adipocytes, at which point they were re-plated into 96-well plates and then treated with the indicated concentrations of cannabinoids for 2 days. Cells were then washed with PBS and stained with AdipoRed (Lonza) and read with a Genios Pro Plate reader (Tecan) according to the manufacturer's instructions.
(§2) MTT (3-[4,5-dimethyltiazol-2yl]-2,5 diphenyltetrazolium bromide) (5 mg/ml differentiation media) was added to cells treated as described above, and cells were incubated for additional 1 h at 37 C.
(§3) Cells were then washed in PBS and dried before the addition of 100 ul of isopropanol to dissolve the formazan precipitate. The OD of each well was measured with a Genios-Pro plate reader (Tecan) equipped with a 620-nm filter.

HHL5 cells [2] = assay: Intracellular triglyceride levels (AdipoRed) in oleic acid-treated HHL5 cells, in vitro model of fatty liver disease; type: cell-based; settings: for intracellular lipid (triglyceride) levels, AdipoRed staining: HHL5 cells co-incubated with 100 uM oleic acid and compound for 24 hr
Description: (§4) HHL-5 cells were cultured in standard growth media (DMEM [Lonza] supplemented with 10% FBS [Lonza], NEAA [Gibco] and Pen.Strep [Gibco]). 3T3-L1 cells were cultured in growth media (GM; DMEM [Lonza] low NaHCO3 (1.5 g/l), supplemented with 10% FBS [Lonza] and pen./strep. [Gibco]).
(§5) HHL5 cells seeded in 96-well plates were grown to 90% confluence and then treated with 100 uM oleic acid (OA) or DMSO (−) for 24 hours in the absence or presence of cannabinoids at the indicated concentrations.
as §1
HHL5 hepatocytes that have been treated with oleic acid to induce intracellular lipid accumulation are a useful in vitro model for fatty liver disease.

[3] = test system: 3T3-L1-derived mature adipocytes; assay: Intracellular triglyceride levels (AdipoRed) in 3T3-L1-derived mature adipocytes; type: cell-based; settings: for intracellular lipid stores, AdipoRed staining: mature 3T3-L1-derived adipocytes treated for 48 hours
Description: as §4
In order to induce adipogenesis cells were grown to 100% confluence and then switched to differentiation media (DMEM [Lonza] supplemented with a specific lot of 10% FBS [Lonza], 1 ug/ml Insulin (Sigma), 250 nM Dexamethasone (Sigma), 500 uM MIX (Sigma) and pen./strep. [Gibco]) for 2 days, followed by incubation in DMEM [Lonza] supplemented with a specific lot of 10% FBS [Lonza], 1 ug/ml Insulin (Sigma) and pen./strep. [Gibco] until day 7-10 at which point mature adipocytes are treated with cannabinoids at the indicated concentrations.
as §1

HHL5 cells [4] = assay: MTT cell viability assay in HHL5 cells; type: cell-based; settings: HHL5 cells treated in parallel
Description: as §5, §2, §3

HHL5 cells [5] = settings: Wargent et al., 2013; cited from earlier work

Compound | effect on cellular viability (MTT assay) [1] | intracellular lipid (triglyceride) levels, AdipoRed staining (HHL5 cells [2]) | potency in lowering TG levels compared with parent compound CBD (HHL5 cells [2]; HHL5 cells, 100 uM oleic acid, 24 hr) | efficacy in reducing Adipored staining compared with CBD ([3]; mature 3T3-L1-derived adipocytes) | intracellular lipid stores, AdipoRed staining [3] | toxicity (cell viability, MTT assay) (HHL5 cells [4]) | toxicity (cell viability, MTT assay) (HHL5 cells [4]; up to 20 uM) | triglyceride (TG) levels in HHL-5 cells treated with oleic acid (HHL5 cells [5])
C=C(C)[C@@H]1CCC(CO)=C[C@H]1c1c(O)cc(CCCCC)cc1O [7-OH-CBD, 7-hydroxy-cannabidiol] | not associated with any apparent effect on cellular viability | effective at lowering TG levels | even more potent that its parent compound CBD | more efficacious than CBD at reducing Adipored staining | dose-dependently decreased intracellular lipid stores | neither 11-OH-THCV or 7-OH-CBD were found to be toxic | – | –
CCCc1cc(O)c2c(c1)OC(C)(C)[C@@H]1CCC(CO)=C[C@@H]21 [11-OH-THCV, 11-hydroxy-tetrahydrocannabivarin] | not associated with any apparent effect on cellular viability | devoid of lipid lowering activity | – | – | had no effect | neither 11-OH-THCV or 7-OH-CBD were found to be toxic | – | –
C=C(C)[C@@H]1CCC(C)=C[C@H]1c1c(O)cc(CCCCC)cc1O [CBD, Cannabidiol] | not associated with any apparent effect on cellular viability | dose-dependently lowered intracellular lipid levels | – | – | dose-dependently decreased intracellular lipid stores | – | no toxicity was found | –
CCCc1cc(O)c2c(c1)OC(C)(C)[C@@H]1CCC(C)=C[C@@H]21 [THCV, Tetrahydrocannabivarin] | not associated with any apparent effect on cellular viability | dose-dependently lowered intracellular lipid levels | – | – | dose-dependently decreased intracellular lipid stores | – | no toxicity was found | able to reduce triglyceride (TG) levels in a time dependent manner
